Experimental data from US10442815B2, “Tricyclic heterocyclic compounds as phosphoinositide 3-kinase inhibitors” (Karus Therapeutics Limited, priority 2015, dated 2019).
pIC50, pKi: −log10 of the molar value.

Legend:
PI3K p110δ [1] = target: T1, PI3K p110δ (Homo sapiens, UniProt O00329); assay: IC50 determination, HTRF biochemical assay (Reaction Biology Corp.)
T1 construct: assay run at Proqinase GmbH
Text: (§1) Biochemical activity against class I PI3K isoforms was confirmed by either Ki determination using the non-radiometric ADP-Glo™ assay (Promega, Madison, Wis., USA) at Proqinase GmbH, or IC50 determination using the HTRF biochemical assay at Reaction Biology Corp.

PI3K p110α [2] = target: T2, PI3K p110α (Homo sapiens, UniProt P42336); assay: as above
T2 construct: assay run at Proqinase GmbH
T2 sequence (P42336 whole entry): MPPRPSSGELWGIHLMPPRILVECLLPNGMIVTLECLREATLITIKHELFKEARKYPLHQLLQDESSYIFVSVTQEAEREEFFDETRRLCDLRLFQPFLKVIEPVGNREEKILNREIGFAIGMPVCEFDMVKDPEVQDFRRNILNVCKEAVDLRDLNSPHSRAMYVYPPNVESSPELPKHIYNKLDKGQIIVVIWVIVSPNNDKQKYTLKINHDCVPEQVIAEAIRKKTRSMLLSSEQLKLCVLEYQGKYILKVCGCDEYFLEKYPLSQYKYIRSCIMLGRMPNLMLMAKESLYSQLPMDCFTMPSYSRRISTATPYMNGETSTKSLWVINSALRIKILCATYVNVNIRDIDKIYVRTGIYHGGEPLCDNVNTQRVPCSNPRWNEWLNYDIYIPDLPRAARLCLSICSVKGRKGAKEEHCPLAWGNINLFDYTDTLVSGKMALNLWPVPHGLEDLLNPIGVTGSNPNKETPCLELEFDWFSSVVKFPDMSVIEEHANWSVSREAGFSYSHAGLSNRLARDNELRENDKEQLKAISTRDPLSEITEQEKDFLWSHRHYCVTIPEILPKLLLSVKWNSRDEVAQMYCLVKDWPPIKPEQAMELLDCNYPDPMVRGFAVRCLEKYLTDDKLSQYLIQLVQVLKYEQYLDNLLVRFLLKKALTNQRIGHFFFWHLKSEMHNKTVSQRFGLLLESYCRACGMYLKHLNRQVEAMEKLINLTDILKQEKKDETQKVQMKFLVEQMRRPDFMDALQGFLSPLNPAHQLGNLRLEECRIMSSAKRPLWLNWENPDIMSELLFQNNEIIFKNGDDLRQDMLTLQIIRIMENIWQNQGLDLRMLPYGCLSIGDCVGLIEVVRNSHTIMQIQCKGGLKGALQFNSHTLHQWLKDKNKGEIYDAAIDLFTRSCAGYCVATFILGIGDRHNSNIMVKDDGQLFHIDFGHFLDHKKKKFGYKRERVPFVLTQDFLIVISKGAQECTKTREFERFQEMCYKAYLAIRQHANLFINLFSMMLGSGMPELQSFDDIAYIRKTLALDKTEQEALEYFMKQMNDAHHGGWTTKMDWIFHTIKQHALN
T2 sequence (P27986 whole entry partner): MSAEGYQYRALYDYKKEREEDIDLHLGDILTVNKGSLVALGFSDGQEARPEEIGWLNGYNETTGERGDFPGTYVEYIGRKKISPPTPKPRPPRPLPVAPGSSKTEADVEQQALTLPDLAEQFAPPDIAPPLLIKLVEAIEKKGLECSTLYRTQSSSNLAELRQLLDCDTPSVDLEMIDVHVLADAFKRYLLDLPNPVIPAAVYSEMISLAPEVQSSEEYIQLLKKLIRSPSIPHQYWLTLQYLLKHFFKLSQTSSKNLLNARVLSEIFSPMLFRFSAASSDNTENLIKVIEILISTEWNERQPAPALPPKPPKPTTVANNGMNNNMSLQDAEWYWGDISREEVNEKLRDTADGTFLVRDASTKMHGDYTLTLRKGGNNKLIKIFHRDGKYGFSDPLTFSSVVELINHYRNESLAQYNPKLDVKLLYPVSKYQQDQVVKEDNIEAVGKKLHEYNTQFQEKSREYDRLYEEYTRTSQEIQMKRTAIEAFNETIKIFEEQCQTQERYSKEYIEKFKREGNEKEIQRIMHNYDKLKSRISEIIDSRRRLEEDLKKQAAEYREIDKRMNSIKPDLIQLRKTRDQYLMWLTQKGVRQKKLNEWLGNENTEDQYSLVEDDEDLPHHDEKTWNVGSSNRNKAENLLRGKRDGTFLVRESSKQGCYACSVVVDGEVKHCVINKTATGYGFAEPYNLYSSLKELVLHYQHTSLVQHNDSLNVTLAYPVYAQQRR
Text: as §1

PI3K p110γ [3] = target: T3, PI3K p110γ (Homo sapiens, UniProt P48736); assay: as above
T3 construct: assay run at Proqinase GmbH
T3 sequence (P48736 whole entry): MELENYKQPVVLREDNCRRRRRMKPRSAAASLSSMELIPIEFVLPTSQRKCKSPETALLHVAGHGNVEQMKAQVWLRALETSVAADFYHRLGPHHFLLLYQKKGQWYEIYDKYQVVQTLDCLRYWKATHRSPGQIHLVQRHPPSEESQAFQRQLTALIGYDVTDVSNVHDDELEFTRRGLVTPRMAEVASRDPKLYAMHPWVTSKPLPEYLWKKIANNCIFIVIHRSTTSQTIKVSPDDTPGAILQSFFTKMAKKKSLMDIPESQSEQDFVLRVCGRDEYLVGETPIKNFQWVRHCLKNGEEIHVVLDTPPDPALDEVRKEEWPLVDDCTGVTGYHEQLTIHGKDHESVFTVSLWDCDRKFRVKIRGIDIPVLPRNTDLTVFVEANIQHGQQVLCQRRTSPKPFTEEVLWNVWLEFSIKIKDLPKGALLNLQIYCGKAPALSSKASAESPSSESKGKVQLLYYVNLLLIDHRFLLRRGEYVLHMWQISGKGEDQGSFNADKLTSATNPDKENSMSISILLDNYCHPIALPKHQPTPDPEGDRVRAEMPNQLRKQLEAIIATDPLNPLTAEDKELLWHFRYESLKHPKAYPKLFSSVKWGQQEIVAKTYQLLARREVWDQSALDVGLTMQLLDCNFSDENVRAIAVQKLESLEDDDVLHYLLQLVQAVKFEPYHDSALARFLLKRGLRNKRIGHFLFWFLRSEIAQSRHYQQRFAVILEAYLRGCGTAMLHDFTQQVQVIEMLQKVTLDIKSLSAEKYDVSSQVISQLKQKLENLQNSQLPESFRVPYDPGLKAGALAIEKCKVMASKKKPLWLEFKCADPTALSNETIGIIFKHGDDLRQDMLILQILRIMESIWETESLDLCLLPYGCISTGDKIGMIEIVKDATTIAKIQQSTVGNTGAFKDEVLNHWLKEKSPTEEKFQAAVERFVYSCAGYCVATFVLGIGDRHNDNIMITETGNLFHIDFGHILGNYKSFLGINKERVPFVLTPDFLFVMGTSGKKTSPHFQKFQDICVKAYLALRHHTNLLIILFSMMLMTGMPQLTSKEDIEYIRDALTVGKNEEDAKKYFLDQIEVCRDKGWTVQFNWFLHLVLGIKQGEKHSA
Text: as §1

PI3K p110β [4] = target: T4, PI3K p110β (Homo sapiens, UniProt P42338); assay: as above
T4 construct: assay run at Proqinase GmbH
T4 sequence (P42338 whole entry): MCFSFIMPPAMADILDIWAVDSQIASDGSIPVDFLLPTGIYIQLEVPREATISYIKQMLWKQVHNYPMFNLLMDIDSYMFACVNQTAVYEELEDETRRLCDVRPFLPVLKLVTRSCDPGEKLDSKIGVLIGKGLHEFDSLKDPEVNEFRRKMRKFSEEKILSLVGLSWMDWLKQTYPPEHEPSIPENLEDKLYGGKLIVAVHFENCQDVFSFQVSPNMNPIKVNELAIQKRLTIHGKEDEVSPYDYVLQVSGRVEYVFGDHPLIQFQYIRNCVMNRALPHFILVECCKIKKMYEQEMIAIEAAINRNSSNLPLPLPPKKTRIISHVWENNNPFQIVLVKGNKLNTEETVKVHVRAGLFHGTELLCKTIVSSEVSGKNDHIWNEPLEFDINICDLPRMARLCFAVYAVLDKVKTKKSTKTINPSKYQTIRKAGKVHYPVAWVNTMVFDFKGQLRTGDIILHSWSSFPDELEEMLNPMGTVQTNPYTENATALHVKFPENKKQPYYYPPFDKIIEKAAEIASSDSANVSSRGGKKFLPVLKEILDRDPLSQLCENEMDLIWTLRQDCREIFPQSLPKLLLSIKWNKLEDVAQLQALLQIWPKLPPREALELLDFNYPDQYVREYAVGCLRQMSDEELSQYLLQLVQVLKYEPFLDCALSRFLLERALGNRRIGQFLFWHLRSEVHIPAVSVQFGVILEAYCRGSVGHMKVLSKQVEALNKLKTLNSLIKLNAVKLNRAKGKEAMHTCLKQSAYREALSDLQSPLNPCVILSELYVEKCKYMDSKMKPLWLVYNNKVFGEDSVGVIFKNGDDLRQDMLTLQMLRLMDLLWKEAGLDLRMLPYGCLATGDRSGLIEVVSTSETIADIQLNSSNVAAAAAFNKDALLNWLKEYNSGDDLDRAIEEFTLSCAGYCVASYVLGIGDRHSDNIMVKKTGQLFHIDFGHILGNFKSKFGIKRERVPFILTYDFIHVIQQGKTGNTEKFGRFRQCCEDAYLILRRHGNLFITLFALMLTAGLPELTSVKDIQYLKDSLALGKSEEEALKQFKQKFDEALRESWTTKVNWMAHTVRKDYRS
T4 sequence (P27986 whole entry partner): as the sequence (P27986 whole entry partner) above
Text: as §1

[5] = Plasma PK of Example B, oral bioavailability and clearance in male Balb/c mice; format: in vivo, mouse; conditions: Mesylate Salt
Experimental: Animals in Group 2 were administered with oral solution formulation of Example B in 5% NMP, 5% Solutol HS and 90% of 20% HPβCD at a dose of 10 mg/kg. Dosing: 10 mg/kg P.O. and 3 mg/kg I.V.

PI3K p110δ [6] = target: T1, PI3K p110δ; assay: Ki determination, non-radiometric ADP-Glo assay (Proqinase GmbH); format: biochemical
Text: as §1

PI3K p110α [7] = target: T2, PI3K p110α; assay: as above; format: biochemical
Text: as §1

PI3K p110γ [8] = target: T3, PI3K p110γ; assay: as above; format: biochemical
Text: as §1

PI3K p110β [9] = target: T4, PI3K p110β; assay: as above; format: biochemical
Text: as §1

[10] = Plasma PK of compound K of WO 2011/021038 in male Balb/c mice; format: in vivo, mouse; conditions: for F: PO 10 mg/kg vs IV 3 mg/kg, male Balb/c mouse
Experimental: Animals in Group 1 were administered intravenously with compound K solution formulation in 5% NMP, 5% solutol HS-15 and 90% normal saline via tail vein at a dose of 3 mg/kg.
Animals in Group 2 were administered with oral solution formulation of compound K in 5% NMP, 5% solutol HS-15 and 90% normal saline at a dose of 10 mg/kg;
Dosing: 10 mg/kg P.O. and 3 mg/kg I.V.

[11] = IV, 3 mg/kg, male Balb/c mouse plasma
[12] = IV, 3 mg/kg, male Balb/c mouse plasma, read-out: Vss
[13] = PO, 10 mg/kg, male Balb/c mouse plasma

T1 sequence (O00329 whole entry): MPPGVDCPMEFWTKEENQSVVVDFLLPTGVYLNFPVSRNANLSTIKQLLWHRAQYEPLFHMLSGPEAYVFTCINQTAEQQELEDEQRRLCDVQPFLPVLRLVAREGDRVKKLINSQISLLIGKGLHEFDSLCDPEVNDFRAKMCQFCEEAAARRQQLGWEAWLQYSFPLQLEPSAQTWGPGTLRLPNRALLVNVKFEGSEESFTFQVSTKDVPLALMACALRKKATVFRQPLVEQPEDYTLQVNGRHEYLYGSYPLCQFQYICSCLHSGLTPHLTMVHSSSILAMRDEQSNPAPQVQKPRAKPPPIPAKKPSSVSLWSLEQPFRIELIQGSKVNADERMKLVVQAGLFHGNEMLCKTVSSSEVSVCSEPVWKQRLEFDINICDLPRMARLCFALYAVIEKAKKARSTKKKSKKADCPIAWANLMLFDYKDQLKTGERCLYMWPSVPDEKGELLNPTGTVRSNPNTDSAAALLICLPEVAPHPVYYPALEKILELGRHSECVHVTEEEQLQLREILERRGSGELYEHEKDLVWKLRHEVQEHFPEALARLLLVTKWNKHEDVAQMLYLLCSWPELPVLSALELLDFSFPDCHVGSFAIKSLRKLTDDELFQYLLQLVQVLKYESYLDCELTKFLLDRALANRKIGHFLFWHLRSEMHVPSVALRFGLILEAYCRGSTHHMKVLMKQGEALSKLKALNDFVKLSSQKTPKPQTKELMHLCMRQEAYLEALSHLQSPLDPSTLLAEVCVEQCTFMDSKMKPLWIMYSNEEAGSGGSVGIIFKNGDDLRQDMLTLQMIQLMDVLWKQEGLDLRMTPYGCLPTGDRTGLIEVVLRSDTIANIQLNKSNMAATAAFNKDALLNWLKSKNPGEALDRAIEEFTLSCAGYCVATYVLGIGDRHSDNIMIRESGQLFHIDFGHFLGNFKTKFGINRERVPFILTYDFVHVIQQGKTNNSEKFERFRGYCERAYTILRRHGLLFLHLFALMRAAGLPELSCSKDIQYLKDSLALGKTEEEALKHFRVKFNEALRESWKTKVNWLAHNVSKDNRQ
T1 sequence (P27986 whole entry partner): as the sequence (P27986 whole entry partner) above

Compound	pKi (PI3K p110δ [6])	pKi (PI3K p110α [7])	pKi (PI3K p110γ [8])	pKi (PI3K p110β [9])	further results
O=S1(=O)CCCN(Cc2cnc3oc4c(N5CCOCC5)nc(-c5cccc6[nH]ccc56)nc4c3c2)CC1 [Example AA, 4-{[4-(1H-indol-4-yl)-6-(morpholin-4-yl)-8-oxa-3,5,10-triazatricyclo[7.4.0.0^2,^7]trideca-1(13),2(7),3,5,9,11-hexaen-12-yl]methyl}-1λ^6,4-thiazepane-1,1-dione]	–	–	–	–	pIC50 (PI3K p110δ [1]): ≥ 6.30; pIC50 (PI3K p110α [2]): ≥ 6.30; pIC50 (PI3K p110γ [3]): 6.00 to 6.30; pIC50 (PI3K p110β [4]): ≥ 6.30
[O-][S+]1CCN(Cc2cnc3oc4c(N5CCOCC5)nc(-c5cccc6[nH]ccc56)nc4c3c2)CC1 [Example B, 4-{[4-(1H-Indol-4-yl)-6-(morpholin-4-yl)-8-oxa-3,5,10-triazatricyclo[7.4.0.0^2,7]trideca-1(13),2(7),3,5,9,11-hexaen-12-yl]methyl}-1λ^4-thiomorpholin-1-one]	≥ 6.30	6.00 to 6.30	5.00 to 6.00	≥ 6.30	AUC(0-inf) [5, 11]: 2940 ng·h/mL; AUClast [5, 11]: 2802.91 ng·mL·h; Cmax [5, 11]: 5320 ng/mL; clearance [5, 11]: 17 mL/min/kg; half-life [5, 11]: 206 min; Vd [5, 12]: 1.44 L/kg; AUC(0-inf) [5, 13]: 7700 ng·h/mL; AUC(0-t) [5, 13]: 7690 ng·h/mL; Cmax [5, 13]: 3830 ng/mL; Tmax [5, 13]: 30 min; bioavailability ([5]; plasma, PO 10 mg/kg vs IV 3 mg/kg, male Balb/c mouse): 82%
O=S1(=O)C[C@@H]2C[C@H]1CN2Cc1cnc2oc3c(N4CCOCC4)nc(-c4cccc5[nH]ccc45)nc3c2c1 [Example K, (1S,4S)-5-{[4-(1H-Indol-4-yl)-6-(morpholin-4-yl)-8-oxa-3,5,10-triazatricyclo[7.4.0.0^2,7]trideca-1(13),2,4,6,9,11-hexaen-12-yl]methyl}-2λ^6-thia-5-azabicyclo[2.2.1]heptane-2,2-dione]	≥ 6.30	5.00 to 6.00	< 5.00	≥ 6.30	–
[O-][S+]1CC2CC1CN2Cc1cnc2oc3c(N4CCOCC4)nc(-c4cccc5[nH]ccc45)nc3c2c1 [Example L, (1S,2R,4S)-5-{([4-(1H-Indol-4-yl)-6-(morpholin-4-yl)-8-oxa-3,5,10-triazatricyclo[7.4.0.0^2,7]trideca-1(13),2,4,6,9,11-hexaen-12-yl]methyl}-2-thia-5-azabicyclo[2.2.1]heptan-2-ium-2-olate]	≥ 6.30	6.00 to 6.30	5.00 to 6.00	≥ 6.30	–
O=C1Cc2c(cccc2-c2nc(N3CCOCC3)c3oc4ncc(CN5CC[S+]([O-])CC5)cc4c3n2)N1 [Example N, 4-[6-(morpholin-4-yl)-12-[(1-oxo-1λ^4-thiomorpholin-4-yl)methyl]-8-oxa-3,5,10-triazatricyclo[7.4.0.0^2,^7]trideca-1(13),2(7),3,5,9,11-hexaen-4-yl]-2,3-dihydro-1H-indol-2-one]	< 5.00	< 5.00	< 5.00	< 5.00	–
[O-][S+]1CCN(Cc2cnc3oc4c(N5CCOCC5)nc(-c5cccc6c5CCN6)nc4c3c2)CC1 [Example O, 4-{[4-(2,3-Dihydro-1H-indol-4-yl)-6-(morpholin-4-yl)-8-oxa-3,5,10-triazatricyclo[7.4.0.0^2,7]trideca-1(13),2(7),3,5,9,11-hexaen-12-yl]methyl}-1λ^4-thiomorpholin-1-one]	≥ 6.30	< 5.00	< 5.00	≥ 6.30	–
Cc1ccc2[nH]ccc2c1-c1nc(N2CCOCC2)c2oc3ncc(CN4CC[S+]([O-])CC4)cc3c2n1 [Example P, 4-{[4-(5-Methyl-1H-indol-4-yl)-6-(morpholin-4-yl)-8-oxa-3,5,10-triazatricyclo[7.4.0.0^2,7]trideca-1(9),2,4,6,10,12-hexaen-12-yl]methyl}-1λ^4-thiomorpholin-1-one]	≥ 6.30	5.00 to 6.00	5.00 to 6.00	≥ 6.30	–
[O-][S+]1CCN(Cc2cnc3oc4c(N5CCOCC5)nc(-c5ccc(F)c6[nH]ccc56)nc4c3c2)CC1 [Example Q, 4-{[4-(7-Fluoro-1H-indol-4-yl)-6-(morpholin-4-yl)-8-oxa-3,5,10-triazatricyclo[7.4.0.0^2,7]trideca-1(13),2(7),3,5,9,11-hexaen-12-yl]methyl}-1λ^4-thiomorpholin-1-one]	≥ 6.30	< 5.00	< 5.00	5.00 to 6.00	–
N#Cc1cc(-c2nc(N3CCOCC3)c3oc4ncc(CN5CC[S+]([O-])CC5)cc4c3n2)c2cc[nH]c2c1 [Example R, 4-[6-(morpholin-4-yl)-12-[(1-oxo-1λ^4-thiomorpholin-4-yl)methyl]-8-oxa-3,5,10-triazatricyclo[7.4.0.0^2,^7]trideca-1(13),2(7),3,5,9,11-hexaen-4-yl]-1H-indole-6-carbonitrile]	< 5.00	< 5.00	< 5.00	< 5.00	–
[O-][S+]1CCN(Cc2cnc3oc4c(N5CCOCC5)nc(-c5c(Cl)ccc6[nH]ccc56)nc4c3c2)CC1 [Example T, 4-{[4-(5-Chloro-1H-indol-4-yl)-6-(morpholin-4-yl)-8-oxa-3,5,10-triazatricyclo[7.4.0.0^2,7]trideca-1(9),2,4,6,10,12-hexaen-12-yl]methyl}-1λ^4-thiomorpholin-1-one]	≥ 6.30	5.00 to 6.00	< 5.00	≥ 6.30	–
[O-][S+]1CCN(Cc2cnc3oc4c(N5CCOCC5)nc(-c5c(Cl)ccc6c5CCN6)nc4c3c2)CC1 [Example U, 4-{[4-(5-Chloro-2,3-dihydro-1H-indol-4-yl)-6-(morpholin-4-yl)-8-oxa-3,5,10-triazatricyclo[7.4.0.0^2,7]trideca-1(9),2,4,6,10,12-hexaen-12-yl]methyl}-1λ^4-thiomorpholin-1-one]	≥ 6.30	< 5.00	< 5.00	5.00 to 6.00	–
c1cc(-c2nc(N3CCOCC3)c3oc4ncc(CN5CCOCC5)cc4c3n2)c2cc[nH]c2c1 [compound K in WO 2011/021038]	–	–	–	–	AUC(0-inf) [10, 11]: 2690 ng·h/mL; AUClast [10, 11]: 2654.15 ng·mL·h; Cmax [10, 11]: 2980 ng/mL; clearance [10, 11]: 18.6 mL/min/kg; half-life [10, 11]: 79.8 min; Vd [10, 12]: 1.81 L/kg; F [10]: 55%; F ([10]; listed as Example K from W02011/021038 (comparative)): 50%; AUC(0-inf) [10, 13]: 5140 ng·h/mL; AUC(0-t) [10, 13]: 4890 ng·h/mL; Cmax [10, 13]: 1720 ng/mL; Tmax [10, 13]: 15 min

More lines, main results first:

pKi (PI3K p110δ [6])	pKi (PI3K p110α [7])	pKi (PI3K p110γ [8])	pKi (PI3K p110β [9])	Compound	further results
≥ 6.30	< 5.00	< 5.00	5.00 to 6.00	Cc1ccc2c(c1-c1nc(N3CCOCC3)c3oc4ncc(CN5CC[S+]([O-])CC5)cc4c3n1)CCN2 [Example V, 4-{[4-(5-Methyl-2,3-dihydro-1H-indol-4-yl)-6-(morpholin-4-yl)-8-oxa-3,5,10-triazatricyclo[7.4.0.0^2,7]trideca-1(9),2,4,6,10,12-hexaen-12-yl]methyl}-1λ^4-thiomorpholin-1-one]	–
≥ 6.30	≥ 6.30	< 5.00	≥ 6.30	N#Cc1ccc2[nH]ccc2c1-c1nc(N2CCOCC2)c2oc3ncc(CN4CC[S+]([O-])CC4)cc3c2n1 [Example W, 4-[6-(morpholin-4-yl)-12-[(1-oxo-1λ^4-thiomorpholin-4-yl)methyl]-8-oxa-3,5,10-triazatricyclo[7.4.0.0^2,^7]trideca-1(9),2,4,6,10,12-hexaen-4-yl]-1H-indole-5-carbonitrile]	–
< 5.00	< 5.00	< 5.00	< 5.00	O=C(O)c1ccc2[nH]ccc2c1-c1nc(N2CCOCC2)c2oc3ncc(CN4CC[S+]([O-])CC4)cc3c2n1 [Example X, 4-[6-(morpholin-4-yl)-12-[(1-oxo-1λ^4-thiomorpholin-4-yl)methyl]-8-oxa-3,5,10-triazatricyclo[7.4.0.0^2,^7]trideca-1(13),2(7),3,5,9,11-hexaen-4-yl]-1H-indole-5-carboxylic acid]	–
≥ 6.30	6.00 to 6.30	5.00 to 6.00	≥ 6.30	CC(C)Oc1ccc2[nH]ccc2c1-c1nc(N2CCOCC2)c2oc3ncc(CN4CC[S+]([O-])CC4)cc3c2n1 [Example Y, 4-{[6-(Morpholin-4-yl)-4-[5-(propan-2-yloxy)-1H-indol-4-yl]-8-oxa-3,5,10-triazatricyclo[7.4.0.0^2^,7]trideca-1(9),2,4,6,10,12-hexaen-12-yl]methyl}-1λ^4-thiomorpholin-1-one]	–
≥ 6.30	≥ 6.30	6.00 to 6.30	≥ 6.30	[O-][S+]1CCN(Cc2cnc3oc4c(N5CCOCC5)nc(-c5c(OC(F)(F)F)ccc6[nH]ccc56)nc4c3c2)CC1 [Example Z, 4-{[6-(Morpholin-4-yl)-4-[5-(trifluoromethoxy)-1H-indol-4-yl]-8-oxa-3,5,10-triazatricyclo[7.4.0.0^2^,7]trideca-1(9),2,4,6,10,12-hexaen-12-yl]methyl}-1λ^4-thiomorpholin-1-one]	–
